Experiment [1] deals with white blood cells (WBCs). Nature of the experiment: On-bench capture test of WBCs using octasaccharide-coated beads. Type of experiment: cell-based. Conditions: WBCs versus CCA cells (Huh28). The method, then: In order to determine whether SCH-45 and SCH-46 can be promising tools for use in clinical examination at an early stage or on the prognostic tracking of cancer, such as blood test, an on-bench capture test of WBCs using SCH-45 and SCH-46 of 100 μM-coated beads was performed in this example.
The whole blood used in this example was provided by National Cheng Kung University Hospital and stored at 4° C. (IRB number: A-ER-103-063 and A-ER-105-109). In order to achieve good efficiency in cancer cell capturing using octasaccharide-coated beads with the blood sample, whole blood was pretreated to remove blood cells, including red blood cells (RBCs) and white blood cells (WBCs). In other words, the whole blood pretreatment process contained a RBC lysis step and a WBC depletion step. […] Whole blood was inoculated with 10^5 Huh28 cells in a 1.5 mL Eppendorf tube. Then, on-bench RBC lysis was performed using a commercial RBC lysis buffer (Cat. 420301, BioLegend®, USA) diluted to 1× working concentration with DI water. The 100 μL of spiked sample was incubated with 1×RBC lysis buffer at a 1:10 volume/volume ratio on a wheeling rotor at 25 rpm, C2 mode for 5 mins, and then centrifuged at 1200 rpm for 5 mins to discard the supernatant. The pellets were washed twice and resuspended in 100 μL of 1× phosphate buffered saline (PBS) buffer. […]

Experiment [2] concerns Huh28 (CCA cell line). Nature of the experiment: Capture test of cell lines by octasaccharide-coated magnetic beads (traditional shaker). Type of experiment: cell-based, human. Conditions: 30 mins. The source says:
The cell lines utilized in this example were SNU478, HuCCT1, Huh28, KKU100, MMNK1, BxPC3, HepG2 and HCT8, SNU478, HuCCT1, Huh28, KKU100, and MMNK1 were supplied by Division of Surgery, National Cheng Kung University Hospital, Taiwan. BxPC3 and HepG2 were supplied by Dr. Kuang Hung Cheng, Institute of Biomedical Science, National Sun Yat-sen University, Taiwan. HCT8 was supplied by Professor Hwan-You Chang, Institute of Life Science, National Tsing Hua University, Taiwan. SNU478, HuCCT1, Huh28 and KKU100 were used as target cells for positive selection, which are CCA cell lines respectively derived from the ampulla of Vater, the intrahepatic-metastasized ascites, the intrahepatic bile duct and the opisthorchis viverrini-related hilar bile duct. For negative selection, MMNK1 (immortalized biliary epithelial), and various types of cancer cell lines, including BxPC3 (pancreatic cancer), HepG2 (liver cancer) and HCT8 (colorectal cancer) were used. […]
In this example, the capture test for the eight cell lines mentioned above was performed with ten octasaccharides to determine their affinity. […] After the incubation, they were washed twice and the amount of captured cells was calculated by a hemocytometer under an inverted microscope. […]

Experiment [3] deals with HCT8 (colorectal cancer). Described as above. The conditions noted are these: 30 mins. Type of experiment: cell-based. The source says:
(§1) The cell lines utilized in this example were SNU478, HuCCT1, Huh28, KKU100, MMNK1, BxPC3, HepG2 and HCT8, SNU478, HuCCT1, Huh28, KKU100, and MMNK1 were supplied by Division of Surgery, National Cheng Kung University Hospital, Taiwan. BxPC3 and HepG2 were supplied by Dr. Kuang Hung Cheng, Institute of Biomedical Science, National Sun Yat-sen University, Taiwan. HCT8 was supplied by Professor Hwan-You Chang, Institute of Life Science, National Tsing Hua University, Taiwan. SNU478, HuCCT1, Huh28 and KKU100 were used as target cells for positive selection, which are CCA cell lines respectively derived from the ampulla of Vater, the intrahepatic-metastasized ascites, the intrahepatic bile duct and the opisthorchis viverrini-related hilar bile duct. For negative selection, MMNK1 (immortalized biliary epithelial), and various types of cancer cell lines, including BxPC3 (pancreatic cancer), HepG2 (liver cancer) and HCT8 (colorectal cancer) were used. Among these cell lines, SNU478, HuCCT1, Huh28, BxPC3 and HCT8 were identically cultured in Roswell Park Memorial Institute 1640 (RPMI 1640, Gibco®, Thermo Fisher Scientific, USA) containing 100 U/mL penicillin and 100 μg/mL streptomycin (Pen Strep, Gibco®, Thermo Fisher Scientific, USA), 10% fetal bovine serum (FBS, Gibco®, Thermo Fisher Scientific, USA). The growth medium for KKU100, MMNK-1 and HepG2 was Dulbecco's modified eagle medium (DMEM, Gibco®, Thermo Fisher Scientific, USA) complemented with the additives described above. All cells were cultured in a humidified incubator at 37° C. under an atmosphere containing 5% CO2.
(§2) In this example, the cells were captured by magnetic beads. The surface of magnetic beads was coated, respectively, with three concentrations of ten kinds of heparan sulfate (HS) octasaccharides, that is, from SCH-43 to SCH-52. The magnetic beads used in this example were Dynabeads® MyOne™ Streptavidin T1 (˜7-10×10^9 beads/mL, Ø=1 μm, Invitrogen, Thermo Fisher Scientific, USA). Briefly, each octasaccharide of 1 μM, 10 μM and 100 μM concentration were first incubated with magnetic beads in a volume/volume ratio of 1:10, and placed on the wheeling rotator (RM-2L INTELLI-mixer, ELMI Ltd., Latvia) at 25 rpm, C2 mode for 30 mins at room temperature. The beads were then collected using a magnetic particle concentrator (MPC, Dynabeads® MPC®-1, Life Technologies) for 2 mins, followed by discarding the supernatant and washing the coated beads three times with 1 mL of deionized (DI) water. Finally, the coated beads were suspended in the same volume of DI water as the initial volume of Dynabeads®.
(§3) In this example, the capture test for the eight cell lines mentioned above was performed with ten octasaccharides to determine their affinity. Therefore, by using the traditional shaker, 2×10^5 cells were incubated with three kinds of concentration (1 μM, 10 μM and 100 μM) of each octasaccharide for 30 mins. After the incubation, they were washed twice and the amount of captured cells was calculated by a hemocytometer under an inverted microscope. Through statistical analysis by ANOVA, the octasaccharides which bound to one cell line with high specificity was compared to other cell lines.

Experiment [4] deals with SNU478 (CCA cell line). Described as above. The conditions noted are these: 30 mins. The class given is cell-based.
Excerpt: as §1, §2, §3

Experiment [5] relates to KKU100 (CCA cell line). The description is as above. Type of experiment: cell-based. The conditions noted are these: 30 mins.
Excerpt: as §1, §2, §3

For experiment [6], the system named is MMNK1 (immortalized biliary epithelial). The experiment is described as above. The class given is cell-based. Conditions: 30 mins.
Excerpt: as §1, §2, §3

Experiment [7] relates to HuCCT1 (CCA cell line). The description is as above. The class given is cell-based. The conditions noted are these: 30 mins.
Excerpt: as §1, §2, §3

In experiment [8] the test system is BxPC3 (pancreatic cancer). Described as above. Type of experiment: cell-based. Conditions: 30 mins.
Excerpt: as §1, §2, §3

In experiment [9] the test system is HepG2 (liver cancer). The description is as above. The class given is cell-based. Conditions: 30 mins.
Excerpt: as §1, §2, §3

[10] abbreviates: beads coated with 1 μM octasaccharide.
The mark [11] stands for this setting: beads coated with 10 μM octasaccharide.
Where [12] appears, read: beads coated with 100 μM octasaccharide.

On to `O=C(CCCC[C@@H]1SC[C@@H]2NC(=O)N[C@@H]21)NCCCOCCOCCOCCOCCOCCOCCC(=O)NCCCCCO[C@@H]1O[C@H](C(=O)O)[C@@H](O[C@H]2O[C@H](COS(=O)(=O)O)[C@@H](O[C@@H]3O[C@@H](C(=O)O)[C@@H](O[C@H]4O[C@H](COS(=O)(=O)O)[C@@H](O[C@@H]5O[C@H](C(=O)O)[C@@H](O[C@H]6O[C@H](COS(=O)(=O)O)[C@@H](O[C@@H]7O[C@@H](C(=O)O)[C@@H](O[C@H]8O[C@H](COS(=O)(=O)O)[C@@H](O)[C@H](O)[C@H]8NS(=O)(=O)O)[C@H](O)[C@H]7OS(=O)(=O)O)[C@H](O)[C@H]6NS(=O)(=O)O)[C@H](O)[C@H]5OS(=O)(=O)O)[C@H](O)[C@H]4NS(=O)(=O)O)[C@H](O)[C@H]3OS(=O)(=O)O)[C@H](O)[C@H]2NS(=O)(=O)O)[C@H](O)[C@H]1OS(=O)(=O)O` [SCH-45], for which the “ratio of WBC capture rate to CCA” value in [1] is 5×10^−5. Also, the capture rate came to 66 ± 6% in [2] (setting [10]); 67 ± 3% in experiment [2] (setting [11]); 16 ± 3% in [3] (setting [10]); 13 ± 0% in experiment [3] (setting [11]); 9 ± 2% in experiment [3] (setting [12]); 20 ± 5% in experiment [4] (setting [10]). For the same compound, the capture rate in experiment [4] (setting [11]) was 17 ± 7%; in experiment [4] (setting [12]), 16 ± 8%; in [5] (setting [10]), 42 ± 3%; in experiment [5] (setting [11]), 44 ± 2%; in experiment [5] (setting [12]), 41 ± 11%; in [6] (setting [10]), 55 ± 7%. In addition, the capture rate in [6] (setting [11]) amounted to 47 ± 20%; in experiment [6] (setting [12]), 16±8%; in experiment [7] (setting [10]), 5 ± 1%; in [7] (setting [11]) it was 5 ± 2%; in experiment [7] (setting [12]), 4 ± 2%; in [8] (setting [10]), 16 ± 6%. Further, the capture rate in [8] (setting [11]) was 11 ± 3%; in [8] (setting [12]) it was 7 ± 3%; in experiment [9] (setting [10]), 14 ± 1%; in experiment [9] (setting [11]), 11 ± 4%; in [9] (setting [12]) it was 9 ± 6%.
